The values that follow come from patent US20220064146A1, “KINASE INHIBITOR COMPOUNDS AND COMPOSITIONS AND METHODS OF USE” (ICAHN SCHOOL OF MEDICINE AT MOUNT SINAI, priority 2018, published 2022).

Each structure is given as a SMILES string. Several values for one entry are separate records, joined by “and”; a condition that tells them apart may be missing. Identical values can stand only once.

The target in one assay is DYRK1A (Homo sapiens, UniProt Q13627). In words: DYRK1A binding assay (DiscoverX KINOMEscan). The following applies: eleven serial three fold dilutions, highest concentration 60 μM. As for the experimental part: Compounds were tested for DYRK1A binding activity at the commercial kinase profiling service DiscoverX. DiscoverX uses proprietary KINOMEscan® Assay (Fabian et al., “A Small Molecule-kinase Interaction Map for Clinical Kinase Inhibitors,” Nat. Biotechnol. 23(3):329-336 (2005), which is hereby incorporated by reference in its entirety). Compounds were screened for DYRK1A activity at a single concentration of 3 μM in duplicates. Similarly, the dissociation constant Kd of the hit compounds from the initial screening was determined at DiscoverX using their proprietary KINOMEscan® Assay. Kd values are determined using eleven serial three fold dilutions with the highest concentration of 60 μM.
A word on the Kd: it is a measure of binding affinity in units of concentration. Lower therefore signals a tighter complex. For `O=c1[nH]c2ccc(-c3ccc(NCc4ccc(F)cc4)nn3)cc2[nH]1` [Compound 16a, 5-(6-((4-Fluorobenzyl)amino)pyridazin-3-yl)-1H-benzo[d]imidazol-2 (3H)-one], binding was characterised by a dissociation constant (Kd) of 7000 nM.
As to `O=c1[nH]c2ccc(-c3cnc(NCc4ccc(F)cc4)nc3)cc2[nH]1` [Compound 16b, 5-(2-((4-Fluorobenzyl)amino)pyrimidin-5-yl)-1H-benzo[d]imidazol-2(3H)-one], the Kd was 73 nM and 82 nM and 140 nM.
Regarding `O=c1[nH]c2ccc(-c3cnc(NCc4ccccc4)nc3)cc2[nH]1` [Compound 16c], the Kd is 50 nM and 95 nM and 80 nM and 60 nM.
Compound `Cn1c(=O)[nH]c2ccc(-c3cnc(NCc4ccccc4)nc3)cc21` [Compound 17c, 6-(2-(Benzylamino)pyrimidin-5-yl)-1-methyl-1H-benzo[d]imidazol-2(3H)-one] returned a Kd of 59 nM.
`Cn1c(=O)[nH]c2ccc(-c3cnc(NCc4ccc(F)cc4)nc3)cc21` [Compound 17d, 6-(2-((4-Fluorobenzyl)amino)pyrimidin-5-yl)-1-methyl-1H-benzo[d]imidazol-2 (3H)-one] displayed a Kd of 90 nM.
`c1ccc(CNc2ncc(-c3ccc4[nH]cnc4c3)cn2)cc1` [Compound 17i, 5-(1H-Benzo[d]imidazol-5-yl)-N-benzylpyrimidin-2-amine] returned a Kd of 2000 nM.
Regarding `Fc1ccc(CNc2ncc(-c3ccc4[nH]cnc4c3)cn2)cc1` [Compound 17j, 5-(1H-Benzo[d]imidazol-5-yl)-N-(4-fluorobenzyl)pyrimidin-2-amine], the affinity, expressed as Kd, was 2300 nM.
`O=c1[nH]c2ccc(-c3cnc(NCc4ccccc4)cn3)cc2[nH]1` [Compound 18c, 5-(5-(Benzylamino)pyrazin-2-yl)-1H-benzo[d]imidazol-2(3H)-one]: binding was put at a Kd of 170 nM.
In turn, `O=c1[nH]c2ccc(-c3cnc(NCc4ccc(F)cc4)cn3)cc2[nH]1` [Compound 18d, 5-(5-((4-Fluorobenzyl)amino)pyrazin-2-yl)-1H-benzo[d]imidazol-2 (3H)-one] displayed a dissociation constant (Kd) of 260 nM.
Same read-out and setting: the value for `O=c1[nH]c2ccc(-c3cnc(NCc4ccccc4F)nc3)cc2[nH]1` [Compound 29a, 5-(2-((2-Fluorobenzyl)amino)pyrimidin-5-yl)-1H-benzo[d]imidazol-2(3H)-one] was 69 nM; that for `O=c1[nH]c2ccc(-c3cnc(NCc4cccc(F)c4)nc3)cc2[nH]1` [Compound 29b, 5-(2-((3-Fluorobenzyl)amino)pyrimidin-5-yl)-1H-benzo[d]imidazol-2(3H)-one] was 91 nM; that for `O=c1[nH]c2ccc(-c3cnc(NCc4ccccc4Cl)nc3)cc2[nH]1` [Compound 29c, 5-(2-((2-Chlorobenzyl)amino)pyrimidin-5-yl)-1H-benzo[d]imidazol-2(3H)-one] was 250 nM.
In turn, `O=c1[nH]c2ccc(-c3cnc(NCc4cccc(Cl)c4)nc3)cc2[nH]1` [Compound 29d, 5-(2-((3-Chlorobenzyl)amino)pyrimidin-5-yl)-1H-benzo[d]imidazol-2(3H)-one] displayed a Kd of 280 nM.
`O=c1[nH]c2ccc(-c3cnc(NCc4ccc(Cl)cc4)nc3)cc2[nH]1` [Compound 29e, 5-(2-((4-Chlorobenzyl)amino)pyrimidin-5-yl)-1H-benzo[d]imidazol-2(3H)-one] yielded a Kd of 180 nM.
As for `N#Cc1cccc(CNc2ncc(-c3ccc4[nH]c(=O)[nH]c4c3)cn2)c1` [Compound 29f, 3-(((5-(2-Oxo-2,3-dihydro-1H-benzo[d]imidazol-5-yl)pyrimidin-2-yl)amino)methyl)benzonitrile], binding was put at a Kd of 49 nM.
The same measure, in the same setting: the result for `N#Cc1ccc(CNc2ncc(-c3ccc4[nH]c(=O)[nH]c4c3)cn2)cc1` [Compound 29g, 4-(((5-(2-Oxo-2,3-dihydro-1H-benzo[d]imidazol-5-yl)pyrimidin-2-yl)amino)methyl)benzonnrile] reads 120 nM; that for `O=c1[nH]c2ccc(-c3cnc(NCc4ccc(-c5ccccc5)cc4)nc3)cc2[nH]1` [Compound 29h, 5-(2-(([1,1′-Biphenyl]-4-ylmethyl)amino)pyrimidin-5-yl)-1H-benzo[d]imidazol-2(3H)-one], 1400 nM.
The compound `CC(Nc1ncc(-c2ccc3[nH]c(=O)[nH]c3c2)cn1)c1ccccc1` (stereo not drawn) [Compound 29j, 5-(2-((1-Phenylethyl)amino)pyrimidin-5-yl)-1H-benzo[d]imidazol-2(3H)-one] had a Kd of 360 nM.
Same read-out and setting: the result for `O=c1[nH]c2ccc(-c3cnc(NCCc4ccccc4)nc3)cc2[nH]1` [Compound 29k, 5-(2-(Phenethylamino)pyrimidin-5-yl)-1H-benzo[d]imidazol-2(3H)-one] reads 200 nM.
In turn, `O=c1[nH]c2ccc(-c3cnc(NCc4cccnc4)nc3)cc2[nH]1` [Compound 30b, 5-(2-((Pyridin-3-ylmethyl)amino)pyrimidin-5-yl)-1H-benzo[d]imidazol-2(3H)-one] showed a Kd of 190 nM.
Regarding `O=c1[nH]c2ccc(-c3cnc(NCc4ccncc4)nc3)cc2[nH]1` [Compound 30c, 5-(2-((Pyridin-4-ylmethyl)amino)pyrimidin-5-yl)-1H-benzo[d]imidazol-2 (3H)-one], the Kd came to 130 nM.
Consider `O=c1[nH]c2ccc(-c3cnc(NCc4cccc5ccccc45)nc3)cc2[nH]1` [Compound 30d, 5-(2-((Naphthalen-1-ylmethyl)amino)pyrimidin-5-yl)-1H-benzo[d]imidazol-2 (3H)-one], for which binding was put at a Kd of 920 nM.
As for `O=c1[nH]c2ccc(-c3cnc(NCc4ccc5ccccc5c4)nc3)cc2[nH]1` [Compound 30e, 5-(2-((Naphthalen-2-ylmethyl)amino)pyrimidin-5-yl)-1H-benzo[d]imidazol-2(3H)-one], the Kd was determined as 7100 nM.
Regarding `NC(=O)c1cccc(CNc2ncc(-c3ccc4[nH]c(=O)[nH]c4c3)cn2)c1` [Compound 32a, 3-(((5-(2-Oxo-2,3-dihydro-1H-benzo[d]imidazol-5-yl)pyrimidin-2-yl)amino)methyl)benzamide], the Kd is 130 nM.
For `NC(=O)c1ccc(CNc2ncc(-c3ccc4[nH]c(=O)[nH]c4c3)cn2)cc1` [Compound 32b, 4-(((5-(2-Oxo-2,3-dihydro-1H-benzo[d]imidazo1-5-yl)pyrimidin-2-yl)amino)methyl)benzamide], the Kd stood at 46 nM.

A further assay addresses T1, DYRK1/DYRK1A (Homo sapiens, UniProt Q13627).
T1 construct: purchased Reaction Biology Corp. (assay service)
In words: DYRK1/DYRK1A IC50 assay (Reaction Biology Corp.). Format: biochemical. The following applies: DYRK1/DYRK1A assay from Reaction Biology Corp.; NI: No inhibition.
One may read the IC50 as the midpoint of a concentration-inhibition curve. The low end stands for higher potency, the high end for lower potency. `O=c1[nH]c2ccc(-c3cncc(NCc4ccccc4)n3)cc2[nH]1` [Compound 18m, 5-(6-(Benzylamino)pyrazin-2-yl)-1H-benzo[d]imidazol-2(3H)-one] registered an IC50 of 1.13 nM.
Regarding `O=c1[nH]c2ccc(-c3cnc(NCCCc4ccccc4)nc3)cc2[nH]1` [Compound 29l, 5-(2-((3-Phenylpropyl)amino)pyrimidin-5-yl)-1H-benzo[d]imidazol-2(3H)-one], the IC50 worked out at 34 nM.
For the compound `O=c1[nH]c2ccc(-c3cnc(Nc4ccccc4F)nc3)cc2[nH]1` [Compound 48a, 5-(2-((2-Fluorophenyl)amino)pyrimidin-5-yl)-1H-benzo[d]imidazol-2(3H)-one], the IC50 was found to be 78 nM.
On to `O=c1[nH]c2ccc(-c3cnc(Nc4cccc(F)c4)nc3)cc2[nH]1` [Compound 48b, 5-(2-((3-Fluorophenyl)amino)pyrimidin-5-yl)-1H-benzo[d]imidazol-2(3H)-one], for which 47.7 nM corresponded to half-maximal inhibition (IC50).
`O=c1[nH]c2ccc(-c3cnc(Nc4ccc(F)cc4)nc3)cc2[nH]1` [Compound 48c, 5-(2-((4-Fluorophenyl)amino)pyrimidin-5-yl)-1H-benzo[d]imidazol-2(3H)-one] registered an IC50 of 58 nM.
Take `O=c1[nH]c2ccc(-c3cnc(Nc4ccccc4Cl)nc3)cc2[nH]1` [Compound 48d, 5-(2-((2-Chlorophenyl)amino)pyrimidin-5-yl)-1H-benzo[d]imidazol-2 (3H)-one]: the midpoint of inhibition, the IC50, lay at 59 nM.
Turning to `O=c1[nH]c2ccc(-c3cnc(Nc4cccc(Cl)c4)nc3)cc2[nH]1` [Compound 48e, 5-(2-((3-Chlorophenyl)amino)pyrimidin-5-yl)-1H-benzo[d]imidazol-2 (3H)-one], the IC50 was determined as 54.9 nM.
`O=c1[nH]c2ccc(-c3cnc(Nc4ccc(Cl)cc4)nc3)cc2[nH]1` [Compound 48f, 5-(2-((4-Chlorophenyl)amino)pyrimidin-5yl)-1H-benzo[d]imidazol-2 (3H)-one]: the IC50 was found to be 90.6 nM.
The same measure, in the same setting: the value for `COc1ccccc1Nc1ncc(-c2ccc3[nH]c(=O)[nH]c3c2)cn1` [Compound 48g, 5-(2-((2-Methoxyphenyl)amino)pyrimidin-5-yl)-1H-benzo[d]imidazol-2(3H)-one] was 497 nM.
`COc1cccc(Nc2ncc(-c3ccc4[nH]c(=O)[nH]c4c3)cn2)c1` [Compound 48h, 5-(2-((3-Methoxyphenyl)amino)pyrimidin-5-yl)-1H-benzo[d]imidazol-2(3H)-one]: the IC50 was determined as 23.5 nM.
The compound `COc1ccc(Nc2ncc(-c3ccc4[nH]c(=O)[nH]c4c3)cn2)cc1` [Compound 48i, 5-(2-((4-Methoxyphenyl)amino)pyrimidin-5-yl)-1H-benzo[d]imidazol-2(3H)-one] registered an IC50 of 30.1 nM.
On the same count and under the same terms, the value for `O=c1[nH]c2ccc(-c3cnc(NCc4ccco4)nc3)cc2[nH]1` [Compound 51a, 5-(2-((Furan-2-ylmethyl)amino)pyrimidin-5-yl)-1H-benzo[d]imidazol-2(3H)-one] was 73.2 nM.
On the same count and under the same terms, the result for `O=c1[nH]c2ccc(-c3cnc(NCc4cccs4)nc3)cc2[nH]1` [Compound 51b, 5-(2-((Thiophen-2-ylmethyl)amino)pyrimidin-5-yl)-1H-benzo[d]imidazol-2(3H)-one] reads 32.7 nM; that for `O=c1[nH]c2ccc(-c3cnc(NCc4ncc[nH]4)nc3)cc2[nH]1` [Compound 51c, 5-(2-(((1H-Imidazol-2-yl)methyl)amino)pyrimidin-5-yl)-1H-benzo[d]imidazol-2(3H)-one], 960 nM.
